{"source": "ChEMBL document CHEMBL4428075", "about": "“New antiproliferative 7-(4-(N-substituted carbamoylmethyl)piperazin-1-yl) derivatives of ciprofloxacin induce cell cycle arrest at G2/M phase” (Bioorg Med Chem, 2016)", "key": {"[1]": {"test_system": "A549", "assay": "Antiproliferative activity against human A549 cells after 24 hrs by BrdU incorporation assay", "format": "functional, cell-based", "conditions": "A549, 24 h"}, "[2]": {"test_system": "OVCAR-8", "assay": "Antiproliferative activity against human OVCAR8 cells at 10^-5 M after 48 hrs by SRB assay", "format": "functional", "conditions": "OVCAR-8, 48 h, read-out: GI"}, "[3]": {"test_system": "MCF7", "assay": "Antiproliferative activity against human MCF7 cells at 10^-5 M after 48 hrs by SRB assay", "format": "functional", "conditions": "MCF7, 48 h, read-out: GI"}, "[4]": {"test_system": "SNB-75", "assay": "Antiproliferative activity against human SNB75 cells at 10^-5 M after 48 hrs by SRB assay", "format": "functional", "conditions": "SNB-75, 48 h, read-out: GI"}, "[5]": {"test_system": "BT-549", "assay": "Antiproliferative activity against human BT549 cells at 10^-5 M after 48 hrs by SRB assay", "format": "functional", "conditions": "BT-549, 48 h, read-out: GI"}, "[6]": {"test_system": "SK-MEL-2", "assay": "Antiproliferative activity against human SK-MEL-2 cells at 10^-5 M after 48 hrs by SRB assay", "format": "functional", "conditions": "SK-MEL-2, 48 h, read-out: GI"}, "[7]": {"test_system": "NCI-H226", "assay": "Antiproliferative activity against human NCI-H226 cells at 10^-5 M after 48 hrs by SRB assay", "format": "functional", "conditions": "NCI-H226, 48 h, read-out: GI"}, "[8]": {"test_system": "CCRF-CEM", "assay": "Antiproliferative activity against human CCRF-CEM cells at 10^-5 M after 48 hrs by SRB assay", "format": "functional", "conditions": "read-out: GI"}, "[9]": {"test_system": "U-251", "assay": "Antiproliferative activity against human U251 cells at 10^-5 M after 48 hrs by SRB assay", "format": "functional", "conditions": "U-251, 48 h, read-out: GI"}, "[10]": {"test_system": "OVCAR-4", "assay": "Antiproliferative activity against human OVCAR4 cells at 10^-5 M after 48 hrs by SRB assay", "format": "functional", "conditions": "OVCAR-4, 48 h, read-out: GI"}, "[11]": {"test_system": "COLO 205", "assay": "Antiproliferative activity against human COLO205 cells at 10^-5 M after 48 hrs by SRB assay", "format": "functional", "conditions": "COLO 205, 48 h, read-out: GI"}, "[12]": {"test_system": "SR", "assay": "Antiproliferative activity against human SR cells at 10^-5 M after 48 hrs by SRB assay", "format": "functional", "conditions": "read-out: GI"}, "[13]": {"test_system": "ACHN", "assay": "Antiproliferative activity against human ACHN cells at 10^-5 M after 48 hrs by SRB assay", "format": "functional", "conditions": "read-out: GI"}, "[14]": {"test_system": "PC-3", "assay": "Antiproliferative activity against human PC3 cells at 10^-5 M after 48 hrs by SRB assay", "format": "functional", "conditions": "PC-3, 48 h, read-out: GI"}, "[15]": {"test_system": "CAKI-1", "assay": "Antiproliferative activity against human Caki1 cells at 10^-5 M after 48 hrs by SRB assay", "format": "functional", "conditions": "CAKI-1, 48 h, read-out: GI"}, "[16]": {"test_system": "HT-29", "assay": "Antiproliferative activity against human HT-29 cells at 10^-5 M after 48 hrs by SRB assay", "format": "functional", "conditions": "HT-29, 48 h, read-out: GI"}, "[17]": {"test_system": "Hs-578T", "assay": "Antiproliferative activity against human Hs 578T cells at 10^-5 M after 48 hrs by SRB assay", "format": "functional", "conditions": "read-out: GI"}, "[18]": {"test_system": "UACC-62", "assay": "Antiproliferative activity against human UACC62 cells at 10^-5 M after 48 hrs by SRB assay", "format": "functional", "conditions": "UACC-62, 48 h, read-out: GI"}, "[19]": {"test_system": "M14", "assay": "Antiproliferative activity against human M14 cells at 10^-5 M after 48 hrs by SRB assay", "format": "functional", "conditions": "M14, 48 h, read-out: GI"}, "[20]": {"test_system": "786-0", "assay": "Antiproliferative activity against human 786-0 cells at 10^-5 M after 48 hrs by SRB assay", "format": "functional", "conditions": "786-0, 48 h, read-out: GI"}, "[21]": {"test_system": "UO-31", "assay": "Antiproliferative activity against human UO31 cells at 10^-5 M after 48 hrs by SRB assay", "format": "functional", "conditions": "UO-31, 48 h, read-out: GI"}, "[22]": {"test_system": "SF-295", "assay": "Antiproliferative activity against human SF295 cells at 10^-5 M after 48 hrs by SRB assay", "format": "functional", "conditions": "SF-295, 48 h, read-out: GI"}, "[23]": {"test_system": "SK-MEL-28", "assay": "Antiproliferative activity against human SK-MEL-28 cells at 10^-5 M after 48 hrs by SRB assay", "format": "functional", "conditions": "SK-MEL-28, 48 h, read-out: GI"}, "[24]": {"test_system": "HCT-116", "assay": "Antiproliferative activity against human HCT116 cells at 10^-5 M after 48 hrs by SRB assay", "format": "functional", "conditions": "HCT-116, 48 h, read-out: GI"}, "[25]": {"test_system": "K562", "assay": "Antiproliferative activity against human K562 cells at 10^-5 M after 48 hrs by SRB assay", "format": "functional", "conditions": "K562, 48 h, read-out: GI"}, "[26]": {"test_system": "Malme-3M", "assay": "Antiproliferative activity against human MALME-3M cells at 10^-5 M after 48 hrs by SRB assay", "format": "functional", "conditions": "read-out: GI"}, "[27]": {"test_system": "HOP-62", "assay": "Antiproliferative activity against human HOP62 cells at 10^-5 M after 48 hrs by SRB assay", "format": "functional", "conditions": "HOP-62, 48 h, read-out: GI"}, "[28]": {"test_system": "EKVX", "assay": "Antiproliferative activity against human EKVX cells at 10^-5 M after 48 hrs by SRB assay", "format": "functional", "conditions": "read-out: GI"}, "[29]": {"test_system": "UACC-257", "assay": "Antiproliferative activity against human UACC257 cells at 10^-5 M after 48 hrs by SRB assay", "format": "functional", "conditions": "UACC-257, 48 h, read-out: GI"}, "[30]": {"test_system": "SK-MEL-5", "assay": "Antiproliferative activity against human SK-MEL-5 cells at 10^-5 M after 48 hrs by SRB assay", "format": "functional", "conditions": "SK-MEL-5, 48 h, read-out: GI"}, "[31]": {"test_system": "NCI-H322M", "assay": "Antiproliferative activity against human NCI-H322M cells at 10^-5 M after 48 hrs by SRB assay", "format": "functional", "conditions": "read-out: GI"}, "[32]": {"test_system": "SNB-19", "assay": "Antiproliferative activity against human SNB19 cells at 10^-5 M after 48 hrs by SRB assay", "format": "functional", "conditions": "SNB-19, 48 h, read-out: GI"}, "[33]": {"test_system": "WI-38", "assay": "Antiproliferative activity against human WI38 cells after 24 hrs by BrdU incorporation assay", "format": "cell-based", "conditions": "WI-38, 24 h"}, "[34]": {"test_system": "MDA-MB-468", "assay": "Antiproliferative activity against human MDA-MB-468 cells at 10^-5 M after 48 hrs by SRB assay", "format": "functional", "conditions": "MDA-MB-468, 48 h, read-out: GI"}, "[35]": {"test_system": "HCT-15", "assay": "Antiproliferative activity against human HCT15 cells at 10^-5 M after 48 hrs by SRB assay", "format": "functional", "conditions": "HCT-15, 48 h, read-out: GI"}, "[36]": {"test_system": "RPMI-8226", "assay": "Antiproliferative activity against human RPMI8226 cells at 10^-5 M after 48 hrs by SRB assay", "format": "functional", "conditions": "RPMI-8226, 48 h, read-out: GI"}, "[37]": {"test_system": "T47D", "assay": "Antiproliferative activity against human T47D cells at 10^-5 M after 48 hrs by SRB assay", "format": "functional", "conditions": "read-out: GI"}, "[38]": {"test_system": "SF-539", "assay": "Antiproliferative activity against human SF539 cells at 10^-5 M after 48 hrs by SRB assay", "format": "functional", "conditions": "SF-539, 48 h, read-out: GI"}, "[39]": {"test_system": "HL-60(TB)", "assay": "Antiproliferative activity against human HL-60(TB) cells at 10^-5 M after 48 hrs by SRB assay", "format": "functional", "conditions": "HL-60, 48 h, read-out: GI"}, "[40]": {"test_system": "LOX IMVI", "assay": "Antiproliferative activity against human LOXIMVI cells at 10^-5 M after 48 hrs by SRB assay", "format": "functional", "conditions": "read-out: GI"}}, "data": [{"smiles": "O=C(CN1CCN(c2cc3c(cc2F)c(=O)c(C(=O)O)cn3C2CC2)CC1)Nc1ccc(Cl)cc1", "values": [{"measurement": "IC50", "setting": "[1]", "value": 14.8, "unit": "µM"}, {"measurement": "inhibition of growth at 10 µM", "setting": "[2]", "value": 21.2, "unit": "%"}, {"measurement": "inhibition of growth at 10 µM", "setting": "[3]", "value": 5.73, "unit": "%"}, {"measurement": "inhibition of growth at 10 µM", "setting": "[4]", "value": 20.3, "unit": "%"}, {"measurement": "inhibition of growth at 10 µM", "setting": "[5]", "value": 44.2, "unit": "%"}, {"measurement": "inhibition of growth at 10 µM", "setting": "[6]", "value": 5.16, "unit": "%"}, {"measurement": "inhibition of growth at 10 µM", "setting": "[7]", "value": 19.9, "unit": "%"}, {"measurement": "inhibition of growth at 10 µM", "setting": "[8]", "value": 23.6, "unit": "%"}, {"measurement": "inhibition of growth at 10 µM", "setting": "[9]", "value": 55.8, "unit": "%"}, {"measurement": "inhibition of growth at 10 µM", "setting": "[10]", "value": 14.7, "unit": "%"}, {"measurement": "inhibition of growth at 10 µM", "setting": "[11]", "value": 0.11, "unit": "%"}, {"measurement": "inhibition of growth at 10 µM", "setting": "[12]", "value": 28.9, "unit": "%"}, {"measurement": "inhibition of growth at 10 µM", "setting": "[13]", "value": 46.8, "unit": "%"}, {"measurement": "inhibition of growth at 10 µM", "setting": "[14]", "value": 19.9, "unit": "%"}, {"measurement": "inhibition of growth at 10 µM", "setting": "[15]", "value": 32.8, "unit": "%"}, {"measurement": "inhibition of growth at 10 µM", "setting": "[16]", "value": 42.1, "unit": "%"}, {"measurement": "inhibition of growth at 10 µM", "setting": "[17]", "value": 12.3, "unit": "%"}, {"measurement": "inhibition of growth at 10 µM", "setting": "[18]", "value": 36.4, "unit": "%"}, {"measurement": "inhibition of growth at 10 µM", "setting": "[19]", "value": 18.2, "unit": "%"}, {"measurement": "inhibition of growth at 10 µM", "setting": "[20]", "value": 29.9, "unit": "%"}, {"measurement": "inhibition of growth at 10 µM", "setting": "[21]", "value": 92.8, "unit": "%"}, {"measurement": "inhibition of growth at 10 µM", "setting": "[22]", "value": 12.1, "unit": "%"}, {"measurement": "inhibition of growth at 10 µM", "setting": "[23]", "value": 12.9, "unit": "%"}, {"measurement": "inhibition of growth at 10 µM", "setting": "[24]", "value": 26.9, "unit": "%"}, {"measurement": "inhibition of growth at 10 µM", "setting": "[25]", "value": 31.9, "unit": "%"}, {"measurement": "inhibition of growth at 10 µM", "setting": "[26]", "value": 8.25, "unit": "%"}, {"measurement": "inhibition of growth at 10 µM", "setting": "[27]", "value": 28.3, "unit": "%"}, {"measurement": "inhibition of growth at 10 µM", "setting": "[28]", "value": 6.62, "unit": "%"}, {"measurement": "inhibition of growth at 10 µM", "setting": "[29]", "value": 43, "unit": "%"}, {"measurement": "inhibition of growth at 10 µM", "setting": "[30]", "value": 28.9, "unit": "%"}, {"measurement": "inhibition of growth at 10 µM", "setting": "[31]", "value": 47.2, "unit": "%"}, {"measurement": "inhibition of growth at 10 µM", "setting": "[32]", "value": 16.9, "unit": "%"}, {"measurement": "IC50", "setting": "[33]", "value": "> 100", "unit": "µM"}, {"measurement": "inhibition of growth at 10 µM", "setting": "[34]", "value": 14, "unit": "%"}, {"measurement": "inhibition of growth at 10 µM", "setting": "[35]", "value": 17, "unit": "%"}, {"measurement": "inhibition of growth at 10 µM", "setting": "[36]", "value": 27.8, "unit": "%"}, {"measurement": "inhibition of growth at 10 µM", "setting": "[37]", "value": 40.9, "unit": "%"}, {"measurement": "inhibition of growth at 10 µM", "setting": "[38]", "value": 13.1, "unit": "%"}, {"measurement": "inhibition of growth at 10 µM", "setting": "[39]", "value": 10.5, "unit": "%"}, {"measurement": "inhibition of growth at 10 µM", "setting": "[40]", "value": 38.9, "unit": "%"}]}]}
